Drawing on patent US10479780B2, “Aminopyrazole derivatives” (Chugai Seiyaku Kabushiki Kaisha, priority 2015, dated 2019), this text covers IC50 for 20 compounds.

Common to all, as to type: biochemical
Assay [1] addresses T1, human Yes1 enzyme (Homo sapiens, UniProt P07947).
T1 construct: made in house
Put plainly: Yes1 enzyme inhibitory activity (time-resolved fluorometry, biotinylated peptide phosphorylation). The following applies: biotinylated peptide phosphorylation, read-out: YES_IC50. A digest of the protocol: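 Inhibition was expressed against a compound-free control to give IC50, using TR-FRET read-out (Eu-cryptate anti-pTyr antibody, streptavidin-XL665).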

For assay [2], the target named is T2, human Src enzyme (Homo sapiens, UniProt P12931).
T2 construct: purchased Carna Biosciences, Inc. 08-173
As to the kind of experiment: Src enzyme inhibitory activity (time-resolved fluorometry, biotinylated peptide phosphorylation). The note with it: biotinylated peptide phosphorylation, read-out: SRC_IC50. The procedure, abridged: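 Compounds were tested for blocking tyrosine phosphorylation of a biotinylated peptide substrate by recombinant human Src. Phosphorylated product was quantified by time-resolved fluorometry using europium cryptate and XL665 conjugates, and IC50 was calculated against the compound-free control.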

Assay [3] has as its target T3, human Lck enzyme (Homo sapiens, UniProt P06239).
T3 construct: purchased Carna Biosciences, Inc. 08-170
As to the kind of experiment: Lck enzyme inhibitory activity (time-resolved fluorometry, biotinylated peptide phosphorylation). The note with it: biotinylated peptide phosphorylation, read-out: LCK_IC50. The procedure, abridged: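 Readout pairs a europium cryptate-labelled anti-phosphotyrosine antibody with XL665-streptavidin, measured by time-resolved fluorescence. IC50 derived from percent inhibition against untreated controls.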

T2 sequence (P12931 whole entry): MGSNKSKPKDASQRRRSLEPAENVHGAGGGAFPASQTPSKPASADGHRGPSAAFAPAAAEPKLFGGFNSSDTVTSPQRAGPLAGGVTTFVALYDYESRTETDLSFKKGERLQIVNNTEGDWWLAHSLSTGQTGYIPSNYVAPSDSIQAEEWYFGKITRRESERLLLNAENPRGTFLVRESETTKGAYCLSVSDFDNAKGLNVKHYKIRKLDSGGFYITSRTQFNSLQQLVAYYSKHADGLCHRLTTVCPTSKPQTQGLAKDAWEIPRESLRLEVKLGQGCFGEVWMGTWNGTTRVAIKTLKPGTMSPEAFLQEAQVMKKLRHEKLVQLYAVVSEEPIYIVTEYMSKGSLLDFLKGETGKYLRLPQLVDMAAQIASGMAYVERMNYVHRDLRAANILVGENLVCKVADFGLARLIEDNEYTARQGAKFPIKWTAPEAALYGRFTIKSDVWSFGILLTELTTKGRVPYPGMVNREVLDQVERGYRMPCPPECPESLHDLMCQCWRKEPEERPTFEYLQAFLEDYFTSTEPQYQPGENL
T1 sequence (P07947 whole entry): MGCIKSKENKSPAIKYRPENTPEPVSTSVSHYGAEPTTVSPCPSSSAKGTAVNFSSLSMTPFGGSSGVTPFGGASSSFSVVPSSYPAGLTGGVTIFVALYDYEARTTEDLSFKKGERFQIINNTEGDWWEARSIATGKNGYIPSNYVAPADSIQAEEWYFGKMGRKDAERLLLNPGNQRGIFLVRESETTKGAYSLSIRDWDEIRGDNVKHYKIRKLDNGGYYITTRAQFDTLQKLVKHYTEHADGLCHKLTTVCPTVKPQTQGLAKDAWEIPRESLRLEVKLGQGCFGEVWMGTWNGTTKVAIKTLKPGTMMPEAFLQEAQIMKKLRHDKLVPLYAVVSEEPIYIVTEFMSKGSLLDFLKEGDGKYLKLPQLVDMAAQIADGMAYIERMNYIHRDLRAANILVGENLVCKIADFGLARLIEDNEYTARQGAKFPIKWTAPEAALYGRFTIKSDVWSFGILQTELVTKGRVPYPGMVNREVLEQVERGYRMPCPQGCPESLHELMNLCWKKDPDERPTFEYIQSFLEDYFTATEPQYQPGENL
T3 sequence (P06239 whole entry): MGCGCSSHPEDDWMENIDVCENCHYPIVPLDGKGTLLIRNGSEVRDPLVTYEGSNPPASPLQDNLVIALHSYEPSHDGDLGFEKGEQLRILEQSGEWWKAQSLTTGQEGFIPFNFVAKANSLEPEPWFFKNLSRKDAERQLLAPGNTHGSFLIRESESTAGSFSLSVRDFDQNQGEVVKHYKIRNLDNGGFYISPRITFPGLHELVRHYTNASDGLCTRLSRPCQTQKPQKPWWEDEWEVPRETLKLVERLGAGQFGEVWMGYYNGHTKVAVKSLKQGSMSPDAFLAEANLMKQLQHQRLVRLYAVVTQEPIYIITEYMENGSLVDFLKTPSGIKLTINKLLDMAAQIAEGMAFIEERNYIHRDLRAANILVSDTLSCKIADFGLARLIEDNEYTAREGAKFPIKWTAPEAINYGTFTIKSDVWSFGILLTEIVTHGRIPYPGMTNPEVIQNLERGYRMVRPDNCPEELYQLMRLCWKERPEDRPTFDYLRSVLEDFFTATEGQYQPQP

With `Cc1cc(Oc2cccc(F)c2F)cc(F)c1-n1ncc(C(=O)c2cc3cc(F)c(NS(=O)(=O)C4CC4)cc3[nH]2)c1N` [Example 4-7-006, N-[2-[5-amino-1-[4-(2,3-difluorophenoxy)-2-fluoro-6-methylphenyl]pyrazole-4-carbonyl]-5-fluoro-1H-indol-6-yl]cyclopropanesulfonamide], the IC50 in assay [1] came out at 7 nM; in assay [2], 380 nM; in assay [3] it was 160 nM.
On the same counts, the results for `Cc1cc(Oc2cc(F)ccc2F)cc(F)c1-n1ncc(C(=O)c2cc3cc(F)c(NS(C)(=O)=O)cc3[nH]2)c1N` [Example 4-7-007, N-[2-[5-amino-1-[4-(2,5-difluorophenoxy)-2-fluoro-6-methylphenyl]pyrazole-4-carbonyl]-5-fluoro-1H-indol-6-yl]methanesulfonamide] are 2 nM, 190 nM and 41 nM.
For the compound `Cc1cc(Oc2cc(F)ccc2F)cc(F)c1-n1ncc(C(=O)c2cc3cc(F)c(NS(=O)(=O)C4CC4)cc3[nH]2)c1N` [Example 4-7-008, N-[2-[5-amino-1-[4-(2,5-difluorophenoxy)-2-fluoro-6-methylphenyl]pyrazole-4-carbonyl]-5-fluoro-1H-indol-6-yl]cyclopropanesulfonamide], the IC50 in assay [1] came out at 5.9 nM; in assay [2], 490 nM; in assay [3], 140 nM.
In the case of `Cc1cc(Oc2ccccc2Cl)cc(F)c1-n1ncc(C(=O)c2cc3cc(F)c(NS(C)(=O)=O)cc3[nH]2)c1N` [Example 4-7-009, N-[2-[5-amino-1-[4-(2-chlorophenoxy)-2-fluoro-6-methylphenyl]pyrazole-4-carbonyl]-5-fluoro-1H-indol-6-yl]methanesulfonamide], the IC50 in assay [1] amounted to 3.7 nM; in assay [2], 150 nM; in assay [3], 34 nM.
Regarding `Cc1cc(Oc2ccccc2Cl)cc(F)c1-n1ncc(C(=O)c2cc3cc(F)c(NS(=O)(=O)C4CC4)cc3[nH]2)c1N` [Example 4-7-010, N-[2-[5-amino-1-[4-(2-chlorophenoxy)-2-fluoro-6-methylphenyl]pyrazole-4-carbonyl]-5-fluoro-1H-indol-6-yl]cyclopropanesulfonamide], the IC50 is 9 nM in assay [1], 280 nM in assay [2] and 100 nM in assay [3].
On the same counts, the results for `Cc1cc(Oc2cccc(Cl)c2)cc(F)c1-n1ncc(C(=O)c2cc3cc(F)c(NS(C)(=O)=O)cc3[nH]2)c1N` [Example 4-7-011, N-[2-[5-amino-1-[4-(3-chlorophenoxy)-2-fluoro-6-methylphenyl]pyrazole-4-carbonyl]-5-fluoro-1H-indol-6-yl]methanesulfonamide] are 14 nM, 200 nM and 97 nM.
In the same order, the values of `Cc1cc(Oc2cccc(Cl)c2)cc(F)c1-n1ncc(C(=O)c2cc3cc(F)c(NS(=O)(=O)C4CC4)cc3[nH]2)c1N` [Example 4-7-012, N-[2-[5-amino-1-[4-(3-chlorophenoxy)-2-fluoro-6-methylphenyl]pyrazole-4-carbonyl]-5-fluoro-1H-indol-6-yl]cyclopropanesulfonamide] are 14 nM, 330 nM and 160 nM.
Turning to `Cc1cc(Oc2ccccc2)cc(F)c1-n1ncc(C(=O)c2cc3cc(F)c(NS(C)(=O)=O)cc3[nH]2)c1N` [Example 4-7-013, N-[2-[5-amino-1-(2-fluoro-6-methyl-4-phenoxyphenyl)pyrazole-4-carbonyl]-5-fluoro-1H-indol-6-yl]methanesulfonamide], the values for the IC50 in assay [1], in assay [2] and in assay [3] were 3 nM, 58 nM and 26 nM, respectively.
On the same counts, the results for `Cc1cc(Oc2ccccc2)cc(F)c1-n1ncc(C(=O)c2cc3cc(F)c(NS(=O)(=O)C4CC4)cc3[nH]2)c1N` [Example 4-7-014, N-[2-[5-amino-1-(2-fluoro-6-methyl-4-phenoxyphenyl)pyrazole-4-carbonyl]-5-fluoro-1H-indol-6-yl]cyclopropanesulfonamide] are 4.9 nM, 130 nM and 73 nM.
Take `Cc1cc(Oc2ccccc2Cl)ncc1-n1ncc(C(=O)c2cc3cc(F)c(NS(=O)(=O)C4CC4)cc3[nH]2)c1N` [Example 4-7-015, N-[2-[5-amino-1-[6-(2-chlorophenoxy)-4-methylpyridin-3-yl]pyrazole-4-carbonyl]-5-fluoro-1H-indol-6-yl]cyclopropanesulfonamide]: the IC50 came out at 0.92 nM in assay [1], 110 nM in assay [2] and 17 nM in assay [3].
In the same order, the values of `Cc1cc(Oc2cccc(Cl)c2)ncc1-n1ncc(C(=O)c2cc3cc(F)c(NS(=O)(=O)C4CC4)cc3[nH]2)c1N` [Example 4-7-016, N-[2-[5-amino-1-[6-(3-chlorophenoxy)-4-methylpyridin-3-yl]pyrazole-4-carbonyl]-5-fluoro-1H-indol-6-yl]cyclopropanesulfonamide] are 4.6 nM, 210 nM and 110 nM.
Consider `Cc1cc(Oc2ccccc2F)ccc1-n1ncc(C(=O)c2cc3cc(F)c(NS(=O)(=O)C4(CC(O)CO)CC4)cc3[nH]2)c1N` (stereo not drawn) [Example 4-8-001, N-{2-{5-amino-1-[4-(2-fluorophenoxy)-2-methylphenyl]pyrazole-4-carbonyl}-5-fluoro-1H-indol-6-yl}-1-(2,3-dihydroxypropyl)cyclopropane-1-sulfonamide], for which the values for the IC50 in assay [1], in assay [2] and in assay [3] were 1.1 nM, 31 nM and 14 nM, respectively.
In the same order, the values of `Cc1cc(Oc2ccccc2F)ncc1-n1ncc(C(=O)c2cc3cc(F)c(N4CCCS4(=O)=O)cc3[nH]2)c1N` [Example 4-9-001, {5-amino-1-[6-(2-fluorophenoxy)-4-methylpyridin-3-yl]pyrazol-4-yl}-[6-(1,1-dioxo-1,2-thiazolidin-2-yl)-5-fluoro-1H-indol-2-yl]methanone] are 0.46 nM, 13 nM and 2.5 nM.
In the same order, the values of `Cc1cc(Oc2c(F)cccc2F)ncc1-n1ncc(C(=O)c2cc3cc(F)c(N4CCCS4(=O)=O)cc3[nH]2)c1N` [Example 4-9-002, [5-amino-1-[6-(2,6-difluorophenoxy)-4-methylpyridin-3-yl]pyrazol-4-yl]-[6-(1,1-dioxo-1,2-thiazolidin-2-yl)-5-fluoro-1H-indol-2-yl]methanone] are 0.72 nM, 9.8 nM and 0.96 nM.
In the same order, the values of `CCN(CC)C(=O)CS(=O)(=O)Nc1cc2[nH]c(C(=O)c3cnn(-c4cnc(Oc5ccccc5F)cc4C)c3N)cc2cc1F` [Example 4-10-001, 2-{{2-{5-amino-1-[6-(2-fluorophenoxy)-4-methylpyridin-3-yl]pyrazole-4-carbonyl}-5-fluoro-1H-indol-6-yl}sulfamoyl}-N,N-diethylacetamide] are 2.1 nM, 86 nM and 18 nM.
For the compound `Cc1cc(Oc2ccccc2F)ccc1-n1ncc(C(=O)c2cc3cc(F)c(NS(=O)(=O)CC(=O)NC(C)C)cc3[nH]2)c1N` [Example 4-10-002, 2-[[2-[5-amino-1-[4-(2-fluorophenoxy)-2-methylphenyl]pyrazole-4-carbonyl]-5-fluoro-1H-indol-6-yl]sulfamoyl]-N-propan-2-ylacetamide], the IC50 amounted to 0.77 nM in assay [1], 27 nM in assay [2] and 11 nM in assay [3].
In the same order, the values of `Cc1cc(Oc2ccccc2F)ccc1-n1ncc(C(=O)c2cc3cc(F)c(NS(=O)(=O)CC(=O)N4CCN(C(C)C)CC4)cc3[nH]2)c1N` [Example 4-10-003, N-[2-[5-amino-1-[4-(2-fluorophenoxy)-2-methylphenyl]pyrazole-4-carbonyl]-5-fluoro-1H-indol-6-yl]-2-oxo-2-(4-propan-2-ylpiperazin-1-yl)ethanesulfonamide 2,2,2-trifluoroacetate] are 0.75 nM, 26 nM and 4.9 nM.
On the same counts, the results for `Cc1cc(Oc2ccccc2F)ccc1-n1ncc(C(=O)c2cc3cc(F)c(NS(=O)(=O)CC(=O)N4CCOCC4)cc3[nH]2)c1N` [Example 4-10-004, N-[2-[5-amino-1-[4-(2-fluorophenoxy)-2-methylphenyl]pyrazole-4-carbonyl]-5-fluoro-1H-indol-6-yl]-2-morpholin-4-yl-2-oxoethanesulfonamide] are 0.53 nM, 12 nM and 8.3 nM.
In the case of `Cc1cc(Oc2ccccc2F)ncc1-n1ncc(C(=O)c2cc3cc(F)c(NS(=O)(=O)CC(=O)N4CCCC4)cc3[nH]2)c1N` [Example 4-10-005, N-[2-[5-amino-1-[6-(2-fluorophenoxy)-4-methylpyridin-3-yl]pyrazole-4-carbonyl]-5-fluoro-1H-indol-6-yl]-2-oxo-2-pyrrolidin-1-ylethanesulfonamide], the IC50 in assay [1] amounted to 2.8 nM; in assay [2], 58 nM; in assay [3], 16 nM.
On the same counts, the results for `Cc1cc(Oc2ccccc2F)ncc1-n1ncc(C(=O)c2cc3cc(F)c(NS(=O)(=O)CC(=O)N4CCOCC4)cc3[nH]2)c1N` [Example 4-10-006, N-[2-[5-amino-1-[6-(2-fluorophenoxy)-4-methylpyridin-3-yl]pyrazole-4-carbonyl]-5-fluoro-1H-indol-6-yl]-2-morpholin-4-yl-2-oxoethanesulfonamide] are 1 nM, 37 nM and 19 nM.
